Experimental data published in ChEMBL document CHEMBL5291721, “A preclinical secondary pharmacology resource illuminates target-adverse drug reaction associations of marketed drugs” (Nat Commun, 2023).

Key:
Endothelin-1 receptor = molecular target: T1, Endothelin-1 receptor (Homo sapiens, UniProt P25101)
T1 sequence (P25101 whole entry): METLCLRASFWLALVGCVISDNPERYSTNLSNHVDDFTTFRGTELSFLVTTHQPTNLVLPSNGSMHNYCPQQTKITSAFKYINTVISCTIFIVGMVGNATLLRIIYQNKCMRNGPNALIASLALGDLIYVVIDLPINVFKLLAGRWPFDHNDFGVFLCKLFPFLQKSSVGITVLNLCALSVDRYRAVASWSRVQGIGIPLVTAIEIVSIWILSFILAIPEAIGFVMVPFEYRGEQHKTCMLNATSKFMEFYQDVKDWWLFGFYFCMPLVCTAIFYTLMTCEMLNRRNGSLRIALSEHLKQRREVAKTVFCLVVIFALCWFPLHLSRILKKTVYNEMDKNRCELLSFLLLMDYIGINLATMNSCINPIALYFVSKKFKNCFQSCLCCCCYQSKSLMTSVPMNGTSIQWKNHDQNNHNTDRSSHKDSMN

Adenosine receptor A3 = molecular target: T2, Adenosine receptor A3 (Homo sapiens, UniProt P0DMS8)
T2 sequence (P0DMS8 whole entry): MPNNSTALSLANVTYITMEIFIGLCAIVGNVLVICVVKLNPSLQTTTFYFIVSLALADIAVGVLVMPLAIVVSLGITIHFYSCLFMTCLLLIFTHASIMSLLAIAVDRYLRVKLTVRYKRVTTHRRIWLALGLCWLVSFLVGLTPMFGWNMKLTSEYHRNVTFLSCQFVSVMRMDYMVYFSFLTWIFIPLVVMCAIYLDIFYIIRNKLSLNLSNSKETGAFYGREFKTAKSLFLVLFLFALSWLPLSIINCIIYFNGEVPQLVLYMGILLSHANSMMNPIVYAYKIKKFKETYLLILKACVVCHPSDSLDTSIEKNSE

[1] = molecular target: T3, Sodium-dependent dopamine transporter (Homo sapiens, UniProt Q01959)
[2] = molecular target: T4, Muscarinic acetylcholine receptor M2 (Homo sapiens, UniProt P08172); type: functional, cell-based
T4 sequence (P08172 whole entry): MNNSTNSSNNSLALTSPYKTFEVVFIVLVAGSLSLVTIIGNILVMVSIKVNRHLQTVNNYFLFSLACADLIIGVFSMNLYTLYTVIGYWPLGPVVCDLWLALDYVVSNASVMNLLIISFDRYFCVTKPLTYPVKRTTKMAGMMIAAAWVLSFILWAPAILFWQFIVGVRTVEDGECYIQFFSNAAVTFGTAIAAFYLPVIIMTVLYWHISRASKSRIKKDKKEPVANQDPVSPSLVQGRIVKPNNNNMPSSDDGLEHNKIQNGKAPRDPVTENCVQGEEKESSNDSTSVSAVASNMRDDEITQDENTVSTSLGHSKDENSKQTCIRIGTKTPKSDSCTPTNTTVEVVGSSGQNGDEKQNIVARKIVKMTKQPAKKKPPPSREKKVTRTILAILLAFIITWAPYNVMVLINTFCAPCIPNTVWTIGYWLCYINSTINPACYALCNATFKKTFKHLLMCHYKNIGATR

[3] = molecular target: Neuronal acetylcholine receptor subunit alpha-4 (Homo sapiens, UniProt P43681)
[4] = molecular target: Beta-2 adrenergic receptor (Homo sapiens, UniProt P07550); type: functional, cell-based
Vasopressin V2 receptor = Vasopressin V2 receptor (Homo sapiens, UniProt P30518)
Thromboxane A2 receptor = molecular target: T5, Thromboxane A2 receptor (Homo sapiens, UniProt P21731); type: functional, cell-based
T5 sequence (P21731 whole entry): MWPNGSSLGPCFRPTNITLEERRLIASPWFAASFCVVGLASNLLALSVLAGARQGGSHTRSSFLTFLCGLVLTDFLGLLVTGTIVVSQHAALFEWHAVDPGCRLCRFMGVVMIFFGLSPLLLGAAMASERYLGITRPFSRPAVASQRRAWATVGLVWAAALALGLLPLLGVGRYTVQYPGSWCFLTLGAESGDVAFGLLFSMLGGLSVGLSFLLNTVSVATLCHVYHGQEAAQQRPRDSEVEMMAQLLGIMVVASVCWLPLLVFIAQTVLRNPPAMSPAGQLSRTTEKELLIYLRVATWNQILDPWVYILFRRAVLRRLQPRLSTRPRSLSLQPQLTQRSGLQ

[5] = molecular target: T3, Sodium-dependent dopamine transporter; remark: listed apart in the source
[6] = molecular target: T6, 5-hydroxytryptamine receptor 1A (Homo sapiens, UniProt P08908)
T6 sequence (P08908 whole entry): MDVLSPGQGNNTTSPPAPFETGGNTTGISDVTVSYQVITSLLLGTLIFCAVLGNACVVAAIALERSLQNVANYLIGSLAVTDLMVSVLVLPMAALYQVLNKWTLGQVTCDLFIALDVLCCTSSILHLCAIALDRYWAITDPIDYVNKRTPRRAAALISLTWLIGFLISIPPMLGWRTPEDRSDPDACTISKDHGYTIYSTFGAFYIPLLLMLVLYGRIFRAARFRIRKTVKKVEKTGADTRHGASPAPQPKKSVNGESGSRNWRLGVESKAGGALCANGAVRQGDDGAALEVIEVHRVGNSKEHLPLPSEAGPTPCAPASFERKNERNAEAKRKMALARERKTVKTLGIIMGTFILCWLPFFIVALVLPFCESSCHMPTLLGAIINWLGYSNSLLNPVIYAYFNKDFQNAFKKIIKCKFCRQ

[7] = molecular target: T7, Alpha-2A adrenergic receptor (Homo sapiens, UniProt P08913)
T7 sequence (P08913 whole entry): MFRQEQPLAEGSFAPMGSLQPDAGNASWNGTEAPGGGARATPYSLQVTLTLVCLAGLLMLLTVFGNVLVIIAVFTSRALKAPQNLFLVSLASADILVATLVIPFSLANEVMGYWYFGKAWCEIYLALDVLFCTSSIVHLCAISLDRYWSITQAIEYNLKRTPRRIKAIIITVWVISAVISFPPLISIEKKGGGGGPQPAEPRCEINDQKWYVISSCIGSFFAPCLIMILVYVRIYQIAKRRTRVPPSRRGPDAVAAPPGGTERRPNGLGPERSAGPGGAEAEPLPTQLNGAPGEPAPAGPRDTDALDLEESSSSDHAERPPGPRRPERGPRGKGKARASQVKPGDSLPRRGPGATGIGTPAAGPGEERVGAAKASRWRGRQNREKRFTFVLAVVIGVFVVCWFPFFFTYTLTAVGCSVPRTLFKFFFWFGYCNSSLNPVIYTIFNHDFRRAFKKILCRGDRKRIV

[8] = molecular target: Sodium-dependent noradrenaline transporter (Homo sapiens, UniProt P23975)
[9] = molecular target: 5-hydroxytryptamine receptor 2B (Homo sapiens, UniProt P41595); type: functional, cell-based
Further: assay procedure not described here.

Sequence of Beta-2 adrenergic receptor (P07550 whole entry): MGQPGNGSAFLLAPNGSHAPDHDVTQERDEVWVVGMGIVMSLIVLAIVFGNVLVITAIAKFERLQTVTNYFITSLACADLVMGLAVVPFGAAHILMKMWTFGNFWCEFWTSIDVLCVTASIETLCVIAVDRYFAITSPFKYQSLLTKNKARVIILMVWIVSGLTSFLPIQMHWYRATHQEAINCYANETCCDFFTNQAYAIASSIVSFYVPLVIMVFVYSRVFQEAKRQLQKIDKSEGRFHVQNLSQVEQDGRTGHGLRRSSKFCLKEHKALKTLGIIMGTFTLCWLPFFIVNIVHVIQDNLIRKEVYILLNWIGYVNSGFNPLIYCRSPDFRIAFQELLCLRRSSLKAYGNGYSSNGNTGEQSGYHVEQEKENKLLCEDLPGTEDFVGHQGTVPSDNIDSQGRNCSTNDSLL
Sequence of Vasopressin V2 receptor (P30518 whole entry): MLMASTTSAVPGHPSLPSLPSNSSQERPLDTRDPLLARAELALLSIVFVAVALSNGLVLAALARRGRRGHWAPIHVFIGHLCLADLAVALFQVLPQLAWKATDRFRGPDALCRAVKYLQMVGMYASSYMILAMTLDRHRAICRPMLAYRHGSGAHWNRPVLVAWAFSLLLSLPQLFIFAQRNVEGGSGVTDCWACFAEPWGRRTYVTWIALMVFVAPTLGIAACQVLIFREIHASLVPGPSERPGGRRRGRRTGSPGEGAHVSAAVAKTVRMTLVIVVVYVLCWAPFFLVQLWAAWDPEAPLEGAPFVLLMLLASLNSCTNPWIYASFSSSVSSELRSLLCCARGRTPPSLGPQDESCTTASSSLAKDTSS
T3 sequence (Q01959 whole entry): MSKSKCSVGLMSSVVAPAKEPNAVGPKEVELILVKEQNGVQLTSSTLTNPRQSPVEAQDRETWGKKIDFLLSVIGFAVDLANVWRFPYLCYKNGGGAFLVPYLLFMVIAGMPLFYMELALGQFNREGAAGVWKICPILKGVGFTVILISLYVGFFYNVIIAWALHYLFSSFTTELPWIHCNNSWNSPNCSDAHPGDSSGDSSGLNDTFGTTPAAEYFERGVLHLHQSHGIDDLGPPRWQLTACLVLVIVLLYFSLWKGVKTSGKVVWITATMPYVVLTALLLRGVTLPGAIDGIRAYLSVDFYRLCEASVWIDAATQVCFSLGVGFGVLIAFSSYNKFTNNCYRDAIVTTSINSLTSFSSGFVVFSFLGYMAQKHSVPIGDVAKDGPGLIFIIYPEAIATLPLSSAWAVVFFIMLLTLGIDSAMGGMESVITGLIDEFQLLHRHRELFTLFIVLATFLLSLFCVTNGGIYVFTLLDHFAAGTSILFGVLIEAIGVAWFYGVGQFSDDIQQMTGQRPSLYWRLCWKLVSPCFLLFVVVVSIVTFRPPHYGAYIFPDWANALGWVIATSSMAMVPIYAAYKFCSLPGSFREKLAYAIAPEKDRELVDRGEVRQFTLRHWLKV
Sequence of Sodium-dependent noradrenaline transporter (P23975 whole entry): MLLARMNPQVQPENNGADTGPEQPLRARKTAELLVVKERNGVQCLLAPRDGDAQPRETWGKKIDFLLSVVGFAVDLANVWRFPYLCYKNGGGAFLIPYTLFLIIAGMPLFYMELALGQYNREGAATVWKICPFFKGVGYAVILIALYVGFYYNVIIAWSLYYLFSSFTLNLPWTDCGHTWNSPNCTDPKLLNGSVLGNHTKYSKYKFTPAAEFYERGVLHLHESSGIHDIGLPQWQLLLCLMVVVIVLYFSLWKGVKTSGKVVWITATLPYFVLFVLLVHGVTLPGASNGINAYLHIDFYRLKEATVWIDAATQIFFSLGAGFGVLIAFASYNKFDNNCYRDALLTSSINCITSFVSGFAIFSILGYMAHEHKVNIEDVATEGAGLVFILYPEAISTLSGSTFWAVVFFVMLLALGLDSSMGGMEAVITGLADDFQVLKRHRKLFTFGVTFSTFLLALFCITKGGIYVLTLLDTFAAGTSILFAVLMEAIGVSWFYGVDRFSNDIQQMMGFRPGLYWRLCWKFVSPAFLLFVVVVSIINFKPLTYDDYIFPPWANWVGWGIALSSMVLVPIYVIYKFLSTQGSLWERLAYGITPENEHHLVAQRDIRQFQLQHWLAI
Sequence of Neuronal acetylcholine receptor subunit alpha-4 (P43681 whole entry): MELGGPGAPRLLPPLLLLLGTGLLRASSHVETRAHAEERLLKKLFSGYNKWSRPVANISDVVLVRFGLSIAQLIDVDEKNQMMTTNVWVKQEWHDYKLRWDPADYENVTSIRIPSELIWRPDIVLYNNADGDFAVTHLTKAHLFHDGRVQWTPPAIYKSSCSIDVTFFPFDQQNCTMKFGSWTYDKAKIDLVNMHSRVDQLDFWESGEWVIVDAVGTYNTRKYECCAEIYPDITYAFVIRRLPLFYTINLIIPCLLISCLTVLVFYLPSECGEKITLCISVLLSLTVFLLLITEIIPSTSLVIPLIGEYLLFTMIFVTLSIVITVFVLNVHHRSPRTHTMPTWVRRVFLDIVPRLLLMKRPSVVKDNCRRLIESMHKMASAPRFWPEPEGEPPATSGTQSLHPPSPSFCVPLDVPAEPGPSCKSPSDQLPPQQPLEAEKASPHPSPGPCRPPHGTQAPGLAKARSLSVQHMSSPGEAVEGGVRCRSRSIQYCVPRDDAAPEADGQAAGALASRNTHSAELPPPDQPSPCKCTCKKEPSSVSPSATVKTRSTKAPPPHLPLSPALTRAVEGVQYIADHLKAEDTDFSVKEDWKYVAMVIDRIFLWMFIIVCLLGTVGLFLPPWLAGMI
Sequence of 5-hydroxytryptamine receptor 2B (P41595 whole entry): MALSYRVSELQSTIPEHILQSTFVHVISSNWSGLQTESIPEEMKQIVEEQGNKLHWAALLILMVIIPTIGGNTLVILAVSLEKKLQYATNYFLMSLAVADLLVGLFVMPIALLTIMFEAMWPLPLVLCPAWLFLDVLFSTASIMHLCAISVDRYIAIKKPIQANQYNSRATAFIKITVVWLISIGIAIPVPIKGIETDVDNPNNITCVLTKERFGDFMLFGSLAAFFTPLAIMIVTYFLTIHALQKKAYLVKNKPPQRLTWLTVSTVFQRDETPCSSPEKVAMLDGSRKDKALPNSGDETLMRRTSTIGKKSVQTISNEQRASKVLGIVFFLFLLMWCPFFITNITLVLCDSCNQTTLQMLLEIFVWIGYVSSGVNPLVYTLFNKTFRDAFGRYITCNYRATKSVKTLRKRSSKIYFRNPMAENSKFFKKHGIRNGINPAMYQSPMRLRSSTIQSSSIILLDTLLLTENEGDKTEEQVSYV

SMILES | AC50 (Endothelin-1 receptor) | AC50 (Adenosine receptor A3) | AC50 [1] | AC50 [2] | AC50 [3] | AC50 [4] | AC50 (Vasopressin V2 receptor) | AC50 (Thromboxane A2 receptor) | AC50 [5] | AC50 [6] | AC50 [7] | AC50 [8] | AC50 [9]
CC(C)N(CCC(C(N)=O)(c1ccccc1)c1ccccn1)C(C)C (stereo not given) [DISOPYRAMIDE] | > 30 µM | > 30 µM | > 30 µM | > 10 µM | > 30 µM | > 30 µM | > 30 µM | – | – | – | – | – | –
CC(C)c1nc(N(C)S(C)(=O)=O)nc(-c2ccc(F)cc2)c1/C=C/[C@@H](O)C[C@@H](O)CC(=O)O [ROSUVASTATIN] | > 30 µM | > 30 µM | > 30 µM | > 30 µM | > 30 µM | > 30 µM | > 30 µM | – | – | – | – | – | –
CC(S)C(=O)NCC(=O)O (stereo not given) [TIOPRONIN] | > 30 µM | > 30 µM | > 30 µM | > 30 µM | > 30 µM | > 30 µM | – | – | – | – | – | – | –
OC[C@H]1O[C@@](CO)(O[C@H]2O[C@H](CO)[C@@H](O)[C@H](O)[C@H]2O)[C@@H](O)[C@@H]1O [SUCROSE] | > 30 µM | > 30 µM | > 30 µM | > 30 µM | > 30 µM | > 30 µM | > 30 µM | > 30 µM | > 30 µM | > 30 µM | > 30 µM | > 30 µM | > 30 µM
Nc1ccc(S(=O)(=O)Nc2nccs2)cc1 [SULFATHIAZOLE] | > 30 µM | > 30 µM | > 10 µM | > 10 µM | > 10 µM | > 30 µM | > 30 µM | – | – | – | – | – | –
CC(C)Cc1ccc(C(C)C(=O)O)cc1 (stereo not given) [IBUPROFEN] | > 30 µM | > 30 µM | > 30 µM | > 10 µM | > 10 µM | > 30 µM | > 30 µM | > 30 µM | > 30 µM | > 30 µM | > 30 µM | > 30 µM | > 30 µM
Cc1onc(-c2ccccc2)c1-c1ccc(S(N)(=O)=O)cc1 [VALDECOXIB] | > 30 µM | > 30 µM | > 30 µM | > 10 µM | > 30 µM | > 30 µM | > 30 µM | > 30 µM | > 30 µM | > 30 µM | > 30 µM | 2.31 µM | > 30 µM
O=C1CCc2cc(OCCCCc3nnnn3C3CCCCC3)ccc2N1 [CILOSTAZOL] | > 30 µM | 18.2 µM | > 30 µM | > 30 µM | > 30 µM | > 30 µM | > 30 µM | – | – | – | – | – | –
C[C@H]1c2cccc(O)c2C(=O)C2=C(O)[C@]3(O)C(=O)C(C(N)=O)=C(O)[C@@H](N(C)C)[C@@H]3[C@@H](O)[C@@H]21 [DOXYCYCLINE] | > 30 µM | > 30 µM | > 10 µM | > 10 µM | > 10 µM | > 30 µM | > 30 µM | – | – | – | – | – | –
